{
  "source": "patent US7416744B2",
  "about": "“Extracts, compounds and pharmaceutical compositions having anti-diabetic activity and their use” (priority 2000, dated 2008)",
  "key": {"[1]": {"system": "male ZDF rats", "experiment": "Acute study: single oral dose, dose-response, food intake", "assay_type": "in vivo, rat", "excerpt": "(§1) The animals used for this study were 30 male ZDF rats and 6 male lean ZDF rats obtained from Gmi (Indianapolis, Ind., USA). The rats arrived at 6 weeks of age. The acute study was undertaken when the rats were 7 weeks old and the chronic study started when the rats were 9 weeks old.\nThis was a single dose, dose-response study in ZDF rats. The 30 ZDF rats were allocated to one of 5 groups so that there were 6 rats in each group. In addition there were 6 untreated lean ZDF rats. All of the rats were housed individually. The acute dose of the compound as given by oral gavage at 9.30 AM. Control ZDF and lean rats received water. Food intake was measured over the periods 9.30-16.00 (daytime) and 16.00-9.30 (night-time) for 48 hours.\nSix days prior to the single dose administration the rats were allocated to individual cages and were provided with food and water ad libitum. Four days prior to dose administration, 50 g of food was placed in each cage. Then two days prior to dose administration at ca 9.30 and 16.00 hours the food remaining was weighed and replaced with a further 50 g.\nAcute Study—The compound (1) was made up in water. Animals were administered with a single oral dose of The compound (1) at the appropriate rate. Control animals received water alone at the rate of 1 ml/kg. The compound (1) was administered at ca 9.30 AM.\n(§2) Daily food and water intake of each rat was measured by weight. Any spilled food was also collected and weighed so that an accurate estimate of food consumption could be made."}, "[2]": {"system": "male ZDF rats", "experiment": "Chronic study: daily oral dosing, food intake (incl. regression after withdrawal)", "assay_type": "in vivo, rat", "excerpt": "as §1\n(§3) After a wash-out of 9 days after the acute dose, the rats were retained in the same treatment groups for the chronic study. […] For the pair-feeding, rats were individually matched. Pair-fed rats together with controls were dosed with water daily. Rats were dosed daily at ca 9.30 AM. The initial doses were 120 mg/kg (high dose) and 60 mg/kg (low dose).\n(§4) Food and water intake were measured daily. Bodyweights were measured twice weekly. Blood samples were taken for determination of glucose, insulin and leptin. Oral glucose tolerance was also measured.\n(§5) Chronic Study—The compound (1) was made up in water. Animals were dosed at the appropriate rate daily by oral gavage. Control animals received water alone at the rate of 1 ml/kg. Doses were administered at ca 10 AM each day for a total of 30 days.\n(§6) On Day 7 of the dosing procedure the dose levels of groups B & D were reduced to 60 mg/kg and 30 mg/kg due to concerns over that food intake suppression might be too great. The dosing procedure remained the same and animals were dosed for a further 23 days (30 days dosing in total).\nas §2\n(§7) In order to determine the potential long-term effects of The compound (1), the measurement of food and water intake were continued following withdrawal of treatment."}, "[3]": {"system": "male ZDF rats", "experiment": "Chronic study: water intake", "assay_type": "in vivo, rat", "procedure": "as §3, §4, §5, §6, §2, §7"}, "[4]": {"system": "male ZDF rats", "experiment": "Chronic study: bodyweight", "assay_type": "in vivo, rat", "procedure": "as §3, §4, §5, §6\nThe bodyweight of each rat was measured twice weekly throughout the course of the study."}, "[5]": {"system": "male ZDF rats", "experiment": "Chronic study: blood glucose concentration in fed rats", "assay_type": "in vivo, rat", "procedure": "as §3, §5, §6\n(§8) For measurement of blood glucose levels, a 20 μl sample of blood was taken from the tail vein whilst animals were in a fed state. A further 100 μl sample of blood was taken and the plasma separated by centrifugation (5000 rpm, 5 minutes). Plasma samples were then analysed for insulin and leptin using rat insulin or leptin ELISA kits (Crystal Chem Inc, PO Box 60225, Chicago, Ill. 60660, USA). Blood glucose, insulin and leptin levels were determined at approximately weekly intervals."}, "[6]": {"system": "male ZDF rats", "experiment": "Chronic study: blood glucose concentration in fasted rats", "assay_type": "in vivo, rat", "conditions": "5 h fast", "procedure": "as §3, §5, §6, §8\nFasted glucose, insulin and leptin levels were determined in an identical manner but animals were fasted for 5 hours prior to samples being taken."}, "[7]": {"system": "male ZDF rats", "experiment": "Chronic study: oral glucose tolerance test (OGTT)", "assay_type": "in vivo, rat", "conditions": "day 9, oral 2 g/kg glucose load", "procedure": "Oral glucose tolerance was measured at 9 days following treatment (chronic study). Animals were fasted for 5 hours prior to the start of the OGTT. Animals were treated with glucose diluted in water at a rate of 2 g/kg ([…]). Blood samples were taken at 0, 30, 60 90 and 120 minutes. Glucose concentrations were determined by mixing blood samples with 0.38 ml of haemolysis reagent. A duplicate 20 μl aliquots of this mixture was taken for each individual sample and placed in an assay tray. To each well was added 180 μl aliquots of Trinders glucose reagent. The samples were mixed and then left for approximately 30 minutes. Samples were then analysed automatically using a SpectraMax 250 and SoftMax Pro software (Molecular devices Corporation, 1311 Orleans Drive, Sunnyvale, Calif. 94089, USA). The results were converted into glucose concentration values using Prism software, version 3.0 (GraphPad Software Inc, San Diego, Calif. USA)\nThe OGTT was repeated after 30 days treatment. The procedure was identical except that the pair-fed rats were each given 6 g of food at 7 AM with food being withdrawn at 9 AM for 5 hours.\nBlood samples for insulin were obtained at 30 minutes prior to and 60 minutes post glucose load.\nOral glucose tolerance was determined after 8 days and after 29 days of treatment, i.e. on day 9 and day 30. Rats were fasted for 5 hours prior to receiving an oral 2 g/kg glucose load."}, "[8]": {"system": "normal rats", "conditions": "administered orally; previously shown; cited from earlier work"}, "[9]": {"conditions": "120 mg/kg and 60 mg/kg daily oral"}},
  "data": [
    {"compound": "C/C=C(\\C)C(=O)O[C@@H]1CC2C(CC=C3C[C@@H](OC4CC(OC)C(OC5CC(OC)C(OC6OC(C)C(O)C(OC)C6O)C(C)O5)C(C)O4)CC[C@@]32C)[C@@]2(O)CC[C@H](C(C)=O)[C@@]12C", "note": "(stereo partly drawn) [compound (1), 3-0-[-β-D-thevetopyranosyl-(1-4)-β-D-cymaropyranosyl-(1-4)-β-D-cymaropyranosyl]-12β-0-tigloyloxy-14-hydroxy-14β-pregn-50-en-20-one]", "values": [
      {"measurement": "food intake for the period 24-48 hours past a single oral dose", "setting": "[1]; 20-160 mg/kg, daytime and night-time", "result": "reduced (both daytime and night-time) in a dose-related manner"},
      {"measurement": "food intake in the second day (significance)", "setting": "[1]; single oral dose 80 mg/kg", "result": "significant"},
      {"measurement": "food intake in the second day (significance)", "setting": "[1]; single oral dose 160 mg/kg", "result": "significant"},
      {"measurement": "night-time food intake compared with lean rats", "setting": "[1]; single oral dose 160 mg/kg", "result": "the same as the lean rats"},
      {"measurement": "food intake in the first 24 hours (significance)", "setting": "[1]; single oral dose 160 mg/kg (only dose significant)", "result": "Significant reduction"},
      {"measurement": "onset of effect on food intake", "setting": "[1]; single oral dose given at 09.30", "result": "slow in onset"},
      {"measurement": "daytime food intake over the 7 hour period post-dosing", "setting": "[1]; single oral dose, dose range 20-160 mg/kg", "result": "no significant effect"},
      {"measurement": "night-time food intake", "setting": "[1]; single oral dose, dose range 20-160 mg/kg, first night", "result": "dose-related reduction"},
      {"measurement": "duration of response to a single dose", "setting": "[1]; single oral dose, effects seen during second day", "result": "long"},
      {"measurement": "daytime food intake over the first 7 days", "setting": "[2]; [9]", "result": "increasing effect"},
      {"measurement": "time until full effect on night-time food intake apparent", "setting": "[2]; [9]", "result": 2, "unit": "days"},
      {"measurement": "appetite suppression, overall conclusion", "setting": "[2]; ZDF male rats", "result": "powerful appetite suppressant"},
      {"measurement": "effectiveness on food intake reduction over the period 7-14 days", "setting": "[2]; after dose reduction to 60 and 30 mg/kg", "result": "small reduction in the effectiveness"},
      {"measurement": "rebound hyperphagia on withdrawal of the drug", "setting": "[2]; after end of chronic dosing", "result": "did not lead to a rebound hyperphagia"},
      {"measurement": "reduction in food intake after 7 days", "setting": "[2]; both dose levels (120 and 60 mg/kg daily oral)", "result": "around 50%"},
      {"measurement": "food intake after 14 days", "setting": "[2]; both groups, 60 and 30 mg/kg", "result": "stabilised"},
      {"measurement": "pharmacological tolerance to food intake reduction", "setting": "[2]; chronic dosing", "result": "no indication of tolerance"},
      {"measurement": "food intake over the treatment period", "setting": "[2]; chronic dosing, overall", "result": "marked reduction"},
      {"measurement": "food intake after withdrawal of drug treatment, relative to control ZDF rats", "setting": "[2]; monitored for a further 17 days after withdrawal", "result": "only a small loss of efficacy"},
      {"measurement": "water intake after withdrawal of the treatment", "setting": "[3]; after 30 days treatment, previously treated rats", "result": "rose slightly"},
      {"measurement": "time after withdrawal before blood glucose concentration and water intake approached that of the diabetic controls", "setting": "[3]; after end of chronic dosing", "result": "approximately 2 weeks"},
      {"measurement": "diabetic state by water intake after 66 days", "setting": "[3]; after withdrawal, versus untreated controls", "result": "not as diabetic as the untreated controls"},
      {"measurement": "time for water intake to be reduced to the level in the lean controls", "setting": "[3]; high dose (120 or 60 mg/kg/day) or low dose (60 or 30 mg/kg/day), maintained throughout dosing", "result": "≤ 4", "unit": "days"},
      {"measurement": "growth rate after 14 days", "setting": "[4]; chronic dosing", "result": "higher growth rate than the control ZDF rats"},
      {"measurement": "growth rate over the first 3 weeks of treatment relative to ZDF controls", "setting": "[4]; chronic dosing, both doses", "result": "dose-related decrease in the growth rate"},
      {"measurement": "bodyweight plateau level", "setting": "[4]; chronic study, ZDF controls plateaued at 360-370 g", "result": "more than 400 g"},
      {"measurement": "bodyweight by the end of the treatment period versus ZDF controls", "setting": "[4]; high dose (120 then 60 mg/kg)", "result": "the same weight"},
      {"measurement": "bodyweight by the end of the treatment period versus ZDF controls", "setting": "[4]; low dose (60 then 30 mg/kg)", "result": "heavier than the controls"},
      {"measurement": "body weight about 2 weeks after withdrawal versus ZDF controls", "setting": "[4]; previously treated rats", "result": "significantly greater"},
      {"measurement": "treatment of established diabetes, overall conclusion", "setting": "[5]; ZDF male rats", "result": "effective treatment"},
      {"measurement": "blood glucose concentration in fed rats", "setting": "[5]; after 7 days of treatment", "result": "reduction in the blood glucose concentration from the diabetic level to a similar concentration as in lean littermates"},
      {"measurement": "blood glucose concentration in fed rats after withdrawal of therapy", "setting": "[5]; after withdrawal", "result": "steadily increased"},
      {"measurement": "glycaemic status (plasma glucose, glucose tolerance, water intake)", "setting": "[5]; chronic study, overall", "result": "substantial improvements in glycaemic status"},
      {"measurement": "glycaemia in fed rats during therapy", "setting": "[5]; until withdrawal of therapy", "result": "Normal glycaemia was maintained"},
      {"measurement": "fasted blood glucose concentration versus ZDF controls", "setting": "[6]; after 8 days treatment", "result": "significantly lower"},
      {"measurement": "fasted blood glucose concentration versus lean rats", "setting": "[6]; after 8 days treatment", "result": "did not differ significantly"},
      {"measurement": "fasted blood glucose concentration versus ZDF controls", "setting": "[6]; after 29 days treatment", "result": "significantly lower"},
      {"measurement": "fasted blood glucose concentration versus lean rats", "setting": "[6]; after 29 days treatment", "result": "did not differ significantly"},
      {"measurement": "oral glucose tolerance", "setting": "[7]", "result": "only marginally impaired relative to lean"},
      {"measurement": "food intake in normal rats", "setting": "[8]", "result": "reduce food intake"}
    ]}
  ]
}
